Laboratory results as given in patent publication US20090036420A1, “BENZAMIDE DERIVATIVES AND THEIR USE FOR TREATING CNS DISORDERS” (priority 2007, published 2009).

The compounds below were run against T1, TAAR1 (Mus musculus, UniProt Q923Y8) (assay: Radioligand binding assay on membranes of HEK293 cells stably expressing TAAR1). Conditions: Ki value (μM) in mouse, radioligand [3H]-rac-2-(1,2,3,4-tetrahydro-1-naphthyl)-2-imidazoline 60 nM, 4° C., 30 min.
T1 construct: expressed in transfected cells; host or cells: HEK293 cells (ATCC #CRL-1573), stably transfected with pIRESneo2 expression plasmid; membrane preparation
Method: The Expand High Fidelity PCR System (Roche Diagnostics) was used with 1.5 mM Mg^2+ and purified PCR products were cloned into pCR2.1-TOPO cloning vector (Invitrogen) following the instructions of the manufacturer. PCR products were subcloned into the pIRESneo2 vector (BD Clontech, Palo Alto, Calif.), and expression vectors were sequence verified before introduction in cell lines.
For the generation of stably transfected cell lines HEK293 cells were transfected with the pIRESneo2 expression plasmids containing the TAAR coding sequences (described above) with Lipofectamine 2000 (Invitrogen) according to the instructions of the manufacturer, and 24 hrs post transfection the culture medium was supplemented with 1 mg/ml G418 (Sigma, Buchs, Switzerland). After a culture period of about 10 d clones were isolated, expanded and tested for responsiveness to trace amines (all compounds purchased from Sigma) with the cAMP Biotrak Enzyme immunoassay (EIA) System (Amersham) following the non-acetylation EIA procedure provided by the manufacturer.
Cells at confluence were rinsed with ice-cold phosphate buffered saline without Ca^2+ and Mg^2+ containing 10 mM EDTA and pelleted by centrifugation at 1000 rpm for 5 min at 4° C. The pellet was then washed twice with ice-cold phosphate buffered saline and cell pellet was frozen immediately by immersion in liquid nitrogen and stored until use at −80° C. Cell pellet was then suspended in 20 ml HEPES-NaOH (20 mM), pH 7.4 containing 10 mM EDTA, and homogenized with a Polytron (PT 3000, Kinematica) at 10,000 rpm for 10 s. The homogenate was centrifuged at 48,000×g for 30 min at 4° C. and the pellet resuspended in 20 ml HEPES-NaOH (20 mM), pH 7.4 containing 0.1 mM EDTA (buffer A), and homogenized with a Polytron at 10,000 rpm for 10 s. The homogenate was then centrifuged at 48,000×g for 30 min at 4° C. and the pellet resuspended in 20 ml buffer A, and homogenized with a Polytron at 10,000 rpm for 10 s. Protein concentration was determined by the method of Pierce (Rockford, Ill.). […] Non-specific binding was defined as the amount of [^3H]-rac-2-(1,2,3,4-tetrahydro-1-naphthyl)-2-imidazoline bound in the presence of the appropriate unlabelled ligand (10 μM). Competing ligands were tested in a wide range of concentrations (10 pM-30 μM). […] Each experiment was performed in duplicate. All incubations were terminated by rapid filtration through UniFilter-96 plates (Packard Instrument Company) and glass filter GF/C, pre-soaked for at least 2 h in polyethylenimine 0.3%, and using a Filtermate 96 Cell Harvester (Packard Instrument Company). The tubes and filters were then washed 3 times with 1 ml aliquots of cold buffer B. Filters were not dried and soaked in Ultima gold (45 μl/well, Packard Instrument Company) and bound radioactivity was counted by a TopCount Microplate Scintillation Counter (Packard Instrument Company).

T1 sequence (Q923Y8 whole entry): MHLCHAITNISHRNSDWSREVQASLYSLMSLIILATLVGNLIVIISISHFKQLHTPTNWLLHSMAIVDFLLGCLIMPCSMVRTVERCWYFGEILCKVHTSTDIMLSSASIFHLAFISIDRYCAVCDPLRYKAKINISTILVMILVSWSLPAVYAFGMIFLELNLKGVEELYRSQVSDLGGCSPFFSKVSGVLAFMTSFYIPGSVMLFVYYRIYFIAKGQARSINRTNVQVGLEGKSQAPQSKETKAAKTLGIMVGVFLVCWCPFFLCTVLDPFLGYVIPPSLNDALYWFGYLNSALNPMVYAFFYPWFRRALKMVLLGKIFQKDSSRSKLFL

Row | Compound | Ki [µM]
1 | CCCCNc1ccc(C(=O)Nc2cccc(OC)c2)cc1C(F)(F)F [Example 145, 4-Butylamino-N-(3-methoxy-phenyl)-3-trifluoromethyl-benzamide] | 0.01
2 | COc1cccc(NC(=O)c2ccc(N3CCOCC3)c(C(F)(F)F)c2)c1 [Example 150, N-(3-Methoxy-phenyl)-4-morpholin-4-yl-3-trifluoromethyl-benzamide] | 0.086

Same assay, conditions: radioligand [3H]-rac-2-(1,2,3,4-tetrahydro-1-naphthyl)-2-imidazoline 60 nM, 4° C., 30 min, read-out: Ki value (μM) in mouse

Row | Ki [µM] | Compound
3 | 0.004 | COc1cccc(NC(=O)c2ccc(F)c(S(=O)(=O)N3CC(C)CC(C)C3)c2)c1 (racemic) [Example 167, (rac,meso)-3-(3,5-Dimethyl-piperidine-1-sulfonyl)-4-fluoro-N-(3-methoxy-phenyl)-benzamide]
4 | 0.007 | COc1cccc(NC(=O)c2ccc(N3CC(C)CC(C)C3)c(C(F)(F)F)c2)c1 (racemic) [Example 194, (rac,meso)-4-(3,5-Dimethyl-piperidin-1-yl)-N-(3-methoxy-phenyl)-3-trifluoromethyl-benzamide]
5 | 0.098 | O=C(Nc1ccccc1)c1ccc(Cl)c(C(F)(F)F)c1 [Example 6, 4-Chloro-N-phenyl-3-trifluoromethyl-benzamide]
6 | 0.002 | COc1cccc(NC(=O)c2ccc(N3CCC(C)CC3)c([N+](=O)[O-])c2)c1 [Example 27, N-(3-Methoxy-phenyl)-4-(4-methyl-piperidin-1-yl)-3-nitro-benzamide]
7 | 0.079 | O=C(Nc1cccc(Cl)c1)c1cnc(Cl)c(Cl)c1 [Example 47, 5,6-Dichloro-N-(3-chloro-phenyl)-nicotinamide]
8 | 0.1 | COc1cccc(NC(=O)c2ccc(F)c(Cl)c2)c1 [Example 70, 3-Chloro-4-fluoro-N-(3-methoxy-phenyl)-benzamide]
9 | 0.03 | COc1cccc(NC(=O)c2ccc(F)c(C(F)(F)F)c2)c1 [Example 73, 4-Fluoro-N-(3-methoxy-phenyl)-3-trifluoromethyl-benzamide]
10 | 0.048 | COc1cccc(NC(=O)c2cnc(Cl)c(Cl)c2)c1 [Example 78, 5,6-Dichloro-N-(3-methoxy-phenyl)-nicotinamide]
11 | 0.076 | O=C(Nc1cccc(Cl)c1)c1ccc(N2CCNCC2)nc1 [Example 84, N-(3-Chloro-phenyl)-6-piperazin-1-yl-nicotinamide]
12 | 0.09 | COc1cccc(NC(=O)c2ccc(F)c([N+](=O)[O-])c2)c1 [Example 85, 4-Fluoro-N-(3-methoxy-phenyl)-3-nitro-benzamide]
13 | 0.004 | CCCNc1ccc(C(=O)Nc2cccc(OC)c2)cc1[N+](=O)[O-] [Example 87, N-(3-Methoxy-phenyl)-3-nitro-4-propylamino-benzamide]
14 | 0.005 | COc1cccc(NC(=O)c2ccc(NCc3ccccc3)c([N+](=O)[O-])c2)c1 [Example 88, 4-Benzylamino-N-(3-methoxy-phenyl)-3-nitro-benzamide]
15 | 0.024 | CCNc1ccc(C(=O)Nc2cccc(OC)c2)cc1[N+](=O)[O-] [Example 90, 4-Ethylamino-N-(3-methoxy-phenyl)-3-nitro-benzamide]
16 | 0.012 | COc1cccc(NC(=O)c2ccc(N3CCCCC3)c([N+](=O)[O-])c2)c1 [Example 94, N-(3-Methoxy-phenyl)-3-nitro-4-piperidin-1-yl-benzamide]
17 | 0.029 | COc1cccc(NC(=O)c2ccc(Nc3ccccc3)c([N+](=O)[O-])c2)c1 [Example 97, N-(3-Methoxy-phenyl)-3-nitro-4-phenylamino-benzamide]
18 | 0.009 | CN1CCN(c2ccc(C(=O)Nc3cccc(Cl)c3)cn2)CC1 [Example 135, N-(3-Chloro-phenyl)-6-(4-methyl-piperazin-1-yl)-nicotinamide]
19 | 0.002 | COc1cccc(NC(=O)c2ccc(N3CCCC3)c(C(F)(F)F)c2)c1 [Example 137, N-(3-Methoxy-phenyl)-4-pyrrolidin-1-yl-3-trifluoromethyl-benzamide]
20 | 0.077 | COCCNc1ccc(C(=O)Nc2cccc(OC)c2)cc1C(F)(F)F [Example 139, 4-(2-Methoxy-ethylamino)-N-(3-methoxy-phenyl)-3-trifluoromethyl-benzamide]
21 | 0.016 | COc1cccc(NC(=O)c2ccc(N3CCC3)c(C(F)(F)F)c2)c1 [Example 140, 4-Azetidin-1-yl-N-(3-methoxy-phenyl)-3-trifluoromethyl-benzamide]
22 | 0.038 | COc1cccc(NC(=O)c2ccc(N3CCCCC3)c(C(F)(F)F)c2)c1 [Example 141, N-(3-Methoxy-phenyl)-4-piperidin-1-yl-3-trifluoromethyl-benzamide]
23 | 0.007 | COc1cccc(NC(=O)c2ccc(N3CCC(C)CC3)c(C(F)(F)F)c2)c1 [Example 143, N-(3-Methoxy-phenyl)-4-(4-methyl-piperidin-1-yl)-3-trifluoromethyl-benzamide]
24 | 0.032 | CCCNc1ccc(C(=O)Nc2cccc(OC)c2)cc1C(F)(F)F [Example 144, N-(3-Methoxy-phenyl)-4-propylamino-3-trifluoromethyl-benzamide]
25 | 0.005 | COc1cccc(NC(=O)c2ccc(NCc3ccccc3)c(C(F)(F)F)c2)c1 [Example 147, 4-Benzylamino-N-(3-methoxy-phenyl)-3-trifluoromethyl-benzamide]
26 | 0.022 | CCNc1ccc(C(=O)Nc2cccc(OC)c2)cc1C(F)(F)F [Example 148, 4-Ethylamino-N-(3-methoxy-phenyl)-3-trifluoromethyl-benzamide]
27 | 0.022 | COc1cccc(NC(=O)c2ccc(NC(C)C)c(C(F)(F)F)c2)c1 [Example 149, 4-Isopropylamino-N-(3-methoxy-phenyl)-3-trifluoromethyl-benzamide]
28 | 0.096 | CNc1ncc(C(=O)Nc2cccc(Cl)c2)cc1Cl [Example 151, 5-Chloro-N-(3-chloro-phenyl)-6-methylamino-nicotinamide]
29 | 0.027 | CC(C)Nc1ncc(C(=O)Nc2cccc(Cl)c2)cc1Cl [Example 152, 5-Chloro-N-(3-chloro-phenyl)-6-isopropylamino-nicotinamide]
30 | 0.035 | COCCNc1ncc(C(=O)Nc2cccc(Cl)c2)cc1Cl [Example 153, 5-Chloro-N-(3-chloro-phenyl)-6-(2-methoxy-ethylamino)-nicotinamide]
31 | 0.014 | O=C(Nc1cccc(Cl)c1)c1cnc(N2CCCC2)c(Cl)c1 [Example 154, 5-Chloro-N-(3-chloro-phenyl)-6-pyrrolidin-1-yl-nicotinamide]

Row | Compound | Ki [µM]
32 | COc1cccc(NC(=O)c2ccc(Cl)c([N+](=O)[O-])c2)c1 [Example 12, 4-Chloro-N-(3-methoxy-phenyl)-3-nitro-benzamide] | 0.037
33 | COc1cccc(NC(=O)c2ccc(Br)c([N+](=O)[O-])c2)c1 [Example 42, 4-Bromo-N-(3-methoxy-phenyl)-3-nitro-benzamide] | 0.021
34 | COc1cccc(NC(=O)c2ccc(NC(C)C)c([N+](=O)[O-])c2)c1 [Example 91, 4-Isopropylamino-N-(3-methoxy-phenyl)-3-nitro-benzamide] | 0.012
35 | COc1cccc(NC(=O)c2ccc(N3CCC3)c([N+](=O)[O-])c2)c1 [Example 92, 4-Azetidin-1-yl-N-(3-methoxy-phenyl)-3-nitro-benzamide] | 0.029
36 | COc1cccc(NC(=O)c2ccc(N3CCCC3)c([N+](=O)[O-])c2)c1 [Example 93, N-(3-Methoxy-phenyl)-3-nitro-4-pyrrolidin-1-yl-benzamide] | 0.013
